Results from publication PMC5802278, “Molecular and cellular mechanisms of HIF prolyl hydroxylase inhibitors in clinical trials” (Chemical Science, 2017).
Like-named read-outs stand apart in the source and are kept apart here.

Assays:
JARID1B (KDM5B) = JARID1B (KDM5B) (Homo sapiens, UniProt Q9UGL1); experiment: AlphaScreen histone demethylase assay; assay type: biochemical
JARID1D (KDM5D) = JARID1D (KDM5D) (Homo sapiens, UniProt Q9BY66); experiment: AlphaScreen histone demethylase assay; assay type: biochemical
JMJD3 (KDM6B) = JMJD3 (KDM6B) (Homo sapiens, UniProt O15054); experiment: AlphaScreen histone demethylase assay; assay type: biochemical
Source text: Protocols for in vitro PHD1–3 MALDI-TOF MS hydroxylation assays[30] and for the AlphaScreen histone demethylase assays[44] were as reported.

[1] = tested on: hypoxia response element (HRE) firefly luciferase reporter in HT1080 cells; experiment: HRE luciferase reporter assay; assay type: cell-based; details: for EC50: Homo sapiens
Procedure: HT1080 cells were stably transfected with a construct containing a firefly luciferase gene under the control of 5 tandem copies of the sequence: […] (which contains the hypoxia response element (HRE) 3′ to the mouse erythropoietin gene) linked to a ‘minimal’ SV40 promoter.
HT1080P8 cells (25 000–30 000) were seeded into 96-well plates (100 μL per well) overnight to enable cell adhesion. […] The medium was removed and cells washed with PBS. Luciferase signal was measured using Luciferase Assay System kit from Promega (E1500) following the manufacturer's protocol with a FLUOstar Omega Microplate Reader (BMG Labtech).

[2] = tested on: HIF-1α and HIF-2α in Hep3b cells; experiment: Immunoblotting of HIF-α stabilization in Hep3b cells; assay type: cell-based, human
Procedure: We then investigated potential time dependent effects of the inhibitors on HIF-α stabilization in Hep3b cells (Fig. 5A). […]
Cell Culture and Immunoblotting
HeLa and RCC4 cells were cultured in Dulbecco’s Modified Eagle’s Medium (DMEM; Sigma Aldrich D6546-500ML) supplemented with 10% fetal bovine serum (Sigma Aldrich F7524-500ML), 4 mM L-glutamine (Sigma Aldrich G7513- 100ML), 50 U/mL penicillin, and 50 μg/mL streptomycin (Sigma Aldrich P0781-100ML). Cells were seeded to reach 90-100% confluency prior to compound treatment. Cells were exposed to the inhibitor at a final concentration of 1% DMSO for 5-6 hours. For Fe(II) titration in the presence of inhibitors, […]
(§1) Cells were harvested in urea/SDS buffer (6.7 M urea, 10 mM Tris-Cl pH 6.8, 10% glycerol, and1% SDS) supplemented with 1mM dithiothreitol following a phosphate-buffered saline (PBS) rinse. Cell extracts were analyzed with SDS-PAGE, electroblotted to polyvinylidene difluoride (PVDF) membrane (Millipore) and probed with the corresponding primary antibody for 1 hour at room temperature or overnight at 4 °C. The secondary antibody specific to primary antibody species conjugated with HRP were applied at room temperature for 1 hour.
Millipore), anti-HIF-1α Hyp564 (D43B5, Cell Signaling), anti-HIF-1α HyN803 (a generous […]
Abcam). Details of antibodies used are given in Tian et al.17 Detection of signal was achieved […]
unless otherwise stated) either with film or ChemiDoc MP (BIO-RAD) imaging system. TM Quantification of the immunobloting signal was performed with Image Lab software from […]

[3] = tested on: HIF-1α in HeLa and U2OS cells, HIF-1α and HIF-2α in Hep3b cells; experiment: Immunoblotting of HIF-α stabilization, dose titration; assay type: cell-based, human; details: 6 hours treatment, all of the cells tested
Procedure: The cellular HIF-α stabilization was further studied using immunoblotting. […]. page 15: […]
freshly every day as a 400 mM stock solution in 20 mM HCl, this was then diluted to 1 mM in deionized water. L-ascorbic acid (50 mM) and 2OG stock solutions (10 mM) were prepared freshly every day in deionized water as for the PHD2 assays14 . The synthetic consensus ankyrin […]
peptide ([…]-CONH2) was synthesized by GL Biochem
(Shanghai) Ltd and dissolved to 1 mM in deionized water.
20 μl FIH (100 nM) in the assay buffer (50 mM Tris.Cl pH 7.8, 50 mM NaCl) was pre-incubated for 15 minutes in the presence of the inhibitors and the enzyme reaction initiated by addition of 20 μl substrate (200 μM L-ascorbic acid, 20 μM Fe2+, 10 μM synthetic ankyrin peptide 14 and 20 μM 2OG). After 15 minutes the reaction was quenched by addition of 4 μl 10% formic acid and the reaction transferred to a RapidFire RF360 high throughput sampling robot. Samples were aspirated under vacuum onto a C4 Solid Phase Extraction (SPE) cartridge.
After an aqueous washing step (0.1% formic acid in water), to remove non-volatile buffer components from the C4 SPE, peptide was eluted in an organic washing step (85% acetonitrile in water, 0.1% formic acid) and injected into an Agilent 6530 Q-TOF mass spectrometer. Ion chromatogram data was extracted for the non-hydroxylated peptide substrate and the hydroxylated peptide product; the peak area data for extracted ion chromatograms were integrated using RapidFire Integrator software. % conversion of substrate to product was calculated in Microsoft excel and IC50 curves generated using Graphpad Prism.
Cell Culture and Immunoblotting […]
as §1, with “The secondary antibody specific to primary antibody species conjugated with HRP were applied at room temperature for 1 hour.” left out

[4] = HT-1080, 16 h, read-out: EC50 HRE luciferase reporter

JARID1B (KDM5B), sequence (Q9UGL1 whole entry): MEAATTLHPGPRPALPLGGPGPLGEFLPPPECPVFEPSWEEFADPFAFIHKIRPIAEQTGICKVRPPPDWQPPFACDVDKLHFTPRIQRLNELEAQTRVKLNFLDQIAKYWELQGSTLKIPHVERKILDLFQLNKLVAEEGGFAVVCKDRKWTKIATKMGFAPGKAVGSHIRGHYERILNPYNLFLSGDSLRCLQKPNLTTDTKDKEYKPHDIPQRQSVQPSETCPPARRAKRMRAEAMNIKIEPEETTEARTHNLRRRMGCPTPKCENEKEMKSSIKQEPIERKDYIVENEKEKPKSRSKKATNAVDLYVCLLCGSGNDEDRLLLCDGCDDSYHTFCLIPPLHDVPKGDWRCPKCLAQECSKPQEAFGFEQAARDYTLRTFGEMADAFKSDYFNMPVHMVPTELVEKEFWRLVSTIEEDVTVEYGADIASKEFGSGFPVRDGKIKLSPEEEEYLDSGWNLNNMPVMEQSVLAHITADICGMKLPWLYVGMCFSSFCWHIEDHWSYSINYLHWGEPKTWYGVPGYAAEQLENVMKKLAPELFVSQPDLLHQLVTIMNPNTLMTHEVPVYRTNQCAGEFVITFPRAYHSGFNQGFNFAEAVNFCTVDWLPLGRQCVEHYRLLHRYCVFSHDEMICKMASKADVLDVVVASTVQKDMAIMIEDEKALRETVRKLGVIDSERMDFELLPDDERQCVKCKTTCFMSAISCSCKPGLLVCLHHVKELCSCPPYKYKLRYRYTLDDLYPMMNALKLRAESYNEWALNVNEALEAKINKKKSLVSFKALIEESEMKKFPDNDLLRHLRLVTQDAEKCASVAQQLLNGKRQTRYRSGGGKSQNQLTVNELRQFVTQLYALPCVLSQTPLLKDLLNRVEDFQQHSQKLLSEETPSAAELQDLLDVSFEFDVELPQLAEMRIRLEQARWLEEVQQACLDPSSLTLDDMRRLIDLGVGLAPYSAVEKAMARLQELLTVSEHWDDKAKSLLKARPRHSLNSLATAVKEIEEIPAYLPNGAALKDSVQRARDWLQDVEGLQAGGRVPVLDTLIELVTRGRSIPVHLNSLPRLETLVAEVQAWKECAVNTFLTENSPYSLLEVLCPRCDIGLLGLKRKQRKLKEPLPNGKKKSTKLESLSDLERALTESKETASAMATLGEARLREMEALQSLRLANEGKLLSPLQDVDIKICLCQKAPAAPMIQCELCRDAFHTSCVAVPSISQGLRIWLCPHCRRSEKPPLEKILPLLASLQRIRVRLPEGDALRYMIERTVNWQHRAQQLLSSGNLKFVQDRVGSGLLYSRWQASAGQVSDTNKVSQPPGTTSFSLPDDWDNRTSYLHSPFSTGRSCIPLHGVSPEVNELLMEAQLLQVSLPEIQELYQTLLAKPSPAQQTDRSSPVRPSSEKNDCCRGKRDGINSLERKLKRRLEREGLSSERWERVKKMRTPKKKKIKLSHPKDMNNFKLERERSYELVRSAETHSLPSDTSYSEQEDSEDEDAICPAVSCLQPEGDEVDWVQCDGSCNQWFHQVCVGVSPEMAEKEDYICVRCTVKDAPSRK
JMJD3 (KDM6B), sequence (O15054 whole entry): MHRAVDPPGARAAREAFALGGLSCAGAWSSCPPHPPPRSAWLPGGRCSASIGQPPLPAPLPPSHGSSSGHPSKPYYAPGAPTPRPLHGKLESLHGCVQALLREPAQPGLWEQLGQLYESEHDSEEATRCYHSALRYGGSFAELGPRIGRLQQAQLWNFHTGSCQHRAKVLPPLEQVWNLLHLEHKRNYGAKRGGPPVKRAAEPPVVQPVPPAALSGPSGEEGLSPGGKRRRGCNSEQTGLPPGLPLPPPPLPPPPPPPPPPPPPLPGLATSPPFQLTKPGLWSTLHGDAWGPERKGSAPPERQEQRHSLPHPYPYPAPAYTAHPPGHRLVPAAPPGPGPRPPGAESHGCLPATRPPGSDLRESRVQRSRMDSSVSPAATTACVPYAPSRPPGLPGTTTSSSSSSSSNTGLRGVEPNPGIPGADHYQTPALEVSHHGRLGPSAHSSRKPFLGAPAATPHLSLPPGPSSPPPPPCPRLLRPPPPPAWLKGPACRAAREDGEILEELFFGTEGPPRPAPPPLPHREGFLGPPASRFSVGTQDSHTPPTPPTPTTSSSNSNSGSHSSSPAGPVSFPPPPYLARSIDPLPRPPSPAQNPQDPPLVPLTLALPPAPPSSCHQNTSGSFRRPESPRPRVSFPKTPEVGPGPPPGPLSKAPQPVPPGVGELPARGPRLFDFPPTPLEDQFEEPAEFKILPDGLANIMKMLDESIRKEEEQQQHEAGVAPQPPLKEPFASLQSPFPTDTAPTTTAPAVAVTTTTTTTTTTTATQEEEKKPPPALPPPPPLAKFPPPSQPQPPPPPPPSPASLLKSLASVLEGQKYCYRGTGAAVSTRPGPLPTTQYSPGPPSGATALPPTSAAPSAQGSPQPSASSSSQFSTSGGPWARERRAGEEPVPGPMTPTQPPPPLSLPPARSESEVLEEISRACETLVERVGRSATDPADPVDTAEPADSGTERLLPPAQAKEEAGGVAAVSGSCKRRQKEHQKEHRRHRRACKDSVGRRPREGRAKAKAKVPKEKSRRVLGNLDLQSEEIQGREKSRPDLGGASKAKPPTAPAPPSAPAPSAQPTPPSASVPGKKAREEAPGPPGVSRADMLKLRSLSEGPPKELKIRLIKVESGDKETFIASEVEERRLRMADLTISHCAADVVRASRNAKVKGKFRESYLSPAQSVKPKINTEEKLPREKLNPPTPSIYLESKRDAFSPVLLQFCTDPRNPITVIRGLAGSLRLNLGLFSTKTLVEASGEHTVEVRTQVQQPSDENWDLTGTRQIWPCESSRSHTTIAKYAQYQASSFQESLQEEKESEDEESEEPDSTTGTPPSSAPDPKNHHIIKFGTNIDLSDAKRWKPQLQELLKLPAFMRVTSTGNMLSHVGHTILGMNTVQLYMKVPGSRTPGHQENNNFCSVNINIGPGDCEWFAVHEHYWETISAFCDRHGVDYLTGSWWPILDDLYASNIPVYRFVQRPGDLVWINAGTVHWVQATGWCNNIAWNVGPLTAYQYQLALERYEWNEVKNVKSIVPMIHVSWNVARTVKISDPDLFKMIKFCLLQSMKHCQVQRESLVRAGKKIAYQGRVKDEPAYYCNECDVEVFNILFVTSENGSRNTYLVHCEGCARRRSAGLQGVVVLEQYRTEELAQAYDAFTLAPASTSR
JARID1D (KDM5D), sequence (Q9BY66 whole entry): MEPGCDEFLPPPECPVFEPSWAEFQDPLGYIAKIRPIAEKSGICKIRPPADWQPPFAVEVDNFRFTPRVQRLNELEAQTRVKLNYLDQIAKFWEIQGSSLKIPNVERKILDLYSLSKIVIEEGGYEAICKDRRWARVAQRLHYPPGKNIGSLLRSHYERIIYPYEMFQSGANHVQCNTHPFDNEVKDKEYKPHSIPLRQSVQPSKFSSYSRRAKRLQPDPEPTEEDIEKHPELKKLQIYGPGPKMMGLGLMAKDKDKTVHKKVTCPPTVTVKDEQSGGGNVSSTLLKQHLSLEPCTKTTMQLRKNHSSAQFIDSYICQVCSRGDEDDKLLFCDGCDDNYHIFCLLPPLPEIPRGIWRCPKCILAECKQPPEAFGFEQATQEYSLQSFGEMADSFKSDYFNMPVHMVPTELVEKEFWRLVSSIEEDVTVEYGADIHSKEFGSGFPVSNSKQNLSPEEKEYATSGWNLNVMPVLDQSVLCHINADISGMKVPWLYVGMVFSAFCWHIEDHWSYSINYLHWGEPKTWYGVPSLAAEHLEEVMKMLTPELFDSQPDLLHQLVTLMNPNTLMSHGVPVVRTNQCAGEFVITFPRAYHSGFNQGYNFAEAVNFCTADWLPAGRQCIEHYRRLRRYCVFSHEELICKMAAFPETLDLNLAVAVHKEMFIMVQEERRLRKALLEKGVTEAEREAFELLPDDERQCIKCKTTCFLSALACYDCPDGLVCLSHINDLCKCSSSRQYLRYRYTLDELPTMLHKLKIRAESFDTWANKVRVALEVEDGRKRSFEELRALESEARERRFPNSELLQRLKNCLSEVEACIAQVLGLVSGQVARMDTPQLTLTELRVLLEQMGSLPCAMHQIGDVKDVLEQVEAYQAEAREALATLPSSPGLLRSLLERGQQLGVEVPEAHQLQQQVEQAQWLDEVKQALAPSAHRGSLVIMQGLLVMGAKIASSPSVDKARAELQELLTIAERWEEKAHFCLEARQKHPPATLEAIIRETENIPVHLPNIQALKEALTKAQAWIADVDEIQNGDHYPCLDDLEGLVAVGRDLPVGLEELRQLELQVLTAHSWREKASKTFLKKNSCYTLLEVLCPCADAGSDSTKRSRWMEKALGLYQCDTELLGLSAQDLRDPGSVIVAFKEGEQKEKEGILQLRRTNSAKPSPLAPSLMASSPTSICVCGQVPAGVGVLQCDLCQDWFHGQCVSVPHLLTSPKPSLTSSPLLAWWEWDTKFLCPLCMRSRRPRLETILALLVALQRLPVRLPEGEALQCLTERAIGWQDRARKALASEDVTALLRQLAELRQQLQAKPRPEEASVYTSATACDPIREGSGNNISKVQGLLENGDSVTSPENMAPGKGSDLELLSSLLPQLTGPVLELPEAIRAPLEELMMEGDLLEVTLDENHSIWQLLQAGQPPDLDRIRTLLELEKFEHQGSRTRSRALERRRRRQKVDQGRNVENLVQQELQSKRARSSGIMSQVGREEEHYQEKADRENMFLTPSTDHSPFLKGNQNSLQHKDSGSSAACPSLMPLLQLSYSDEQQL

CC(C)(C)OC(=O)c1ccc(-n2[nH]cc(-n3ccnn3)c2=O)nc1 [IOX4]
IC50 (JARID1B (KDM5B); read-out: IC50 JARID1B (KDM5B)): 87 µM | IC50 (JARID1D (KDM5D); read-out: IC50 JARID1D (KDM5D)): 91 µM | IC50 (JMJD3 (KDM6B); read-out: IC50 JMJD3 (KDM6B)): < 1 µM | concentrations at which the luciferase signals were reduced ([1]; HT1080 cells, 16 hours): > 33 µM | EC50 [1, 4]: 0.8 µM | time at which HIF-2α level saturated ([2]; 2.5 μM): 1 h | time at which HIF-1α level saturated ([2]; 10 μM): 3 to 6 h | time at which HIF-2α level saturated ([2]; 10 μM): 3 to 10 h

O=c1c(-n2ccnn2)c[nH]n1-c1cc(N2CCOCC2)ncn1 [Molidustat]
IC50 (JARID1B (KDM5B); read-out: IC50 JARID1B (KDM5B)): > 100 µM | IC50 (JARID1D (KDM5D); read-out: IC50 JARID1D (KDM5D)): > 100 µM | IC50 (JMJD3 (KDM6B); read-out: IC50 JMJD3 (KDM6B)): 35 µM | concentrations at which the luciferase signals were reduced ([1]; HT1080 cells, 16 hours): > 33 µM | EC50 ([1]; HT-1080, HT1080 cells, 16 hours treatment, read-out: EC50 HRE luciferase reporter): 2.1 µM | concentration at which HIF-1α levels (and HIF-2α levels in Hep3b cells) were saturated [3]: < 100 µM | time at which HIF-2α level saturated ([2]; 2.5 μM): 1 h | time at which HIF-1α level saturated ([2]; 10 μM): after the first hour | time at which HIF-2α level saturated ([2]; 10 μM): after the first hour

O=C(O)CNC(=O)c1ncc(-c2cccc(Cl)c2)cc1O [Vadadustat]
IC50 (JARID1B (KDM5B); read-out: IC50 JARID1B (KDM5B)): 30 µM | IC50 (JARID1D (KDM5D); read-out: IC50 JARID1D (KDM5D)): > 100 µM | IC50 (JMJD3 (KDM6B); read-out: IC50 JMJD3 (KDM6B)): 37 µM | EC50 ([1]; HT-1080, 6 h, read-out: EC50 HRE luciferase reporter): 15.7 µM | EC50 [1, 4]: 41 µM | EC50 ([1]; HT-1080, 24 h, read-out: EC50 HRE luciferase reporter): 37 µM | concentration from which dose-dependent HIF-1α stabilization was clear ([2]; up to 6 hours): ≥ 50 µM

Cc1nc(C(=O)NCC(=O)O)c(O)c2ccc(Oc3ccccc3)cc12 [FG-4592]
IC50 (JARID1B (KDM5B); read-out: IC50 JARID1B (KDM5B)): > 100 µM | IC50 (JARID1D (KDM5D); read-out: IC50 JARID1D (KDM5D)): > 100 µM | IC50 (JMJD3 (KDM6B); read-out: IC50 JMJD3 (KDM6B)): > 100 µM | EC50 ([1]; HT-1080, 6 h, read-out: EC50 HRE luciferase reporter, HT1080 cells, 6 hours treatment): 3 µM | EC50 ([1]; HT-1080, 16 h, read-out: EC50 HRE luciferase reporter, HT1080 cells, 16 hours treatment): 7 µM | EC50 ([1]; HT-1080, 24 h, read-out: EC50 HRE luciferase reporter, HT1080 cells, 24 hours treatment): 7 µM | concentration at which HIF-1α levels (and HIF-2α levels in Hep3b cells) were saturated [3]: < 100 µM

O=C(O)CNC(=O)C1C(=O)N(C2CCCCC2)C(=O)N(C2CCCCC2)C1=O [GSK1278863]
IC50 (JARID1B (KDM5B)): > 100 µM | IC50 (JARID1D (KDM5D)): > 100 µM | IC50 (JMJD3 (KDM6B)): > 100 µM | Emax in HRE luciferase reporter assay ([1]; HT1080 cells, 16 hours): lowest observed Emax | concentrations at which the luciferase signals were reduced ([1]; HT1080 cells, 16 hours): > 33 µM | EC50 [1, 4]: 0.8 µM | concentration at which HIF-1α levels (and HIF-2α levels in Hep3b cells) were saturated [3]: < 100 µM | time at which HIF-1α level saturated ([2]; 10 μM): 3 h | time at which HIF-2α level saturated ([2]; 10 μM): 3 h
